Test results as given in patent US7528224B1, “Peptide for triggering an immune reaction against tumor cells” (Immatics Biotechnologies GmbH, priority 1999, dated 2009).
Ends that are not written are not given here.

Assays:
cytotoxic T cells = experiment: Induction of cytotoxic T cells in vitro with peptide-pulsed dendritic cells; type: cell-based, human; settings: dendritic cells incubated with 50 μg/ml synthetic peptide, autologous mononuclear cells
Method: As e.g. described by Brossart, P., et al., Cancer Res 58 (1998), pages 732 ff.; first of all, mononuclear cells of peripheral blood were isolated from buffy coat preparations of heparinized blood of three healthy donators by Ficoll/Paque (Gibco-BRL, Grand Island, N.Y.) density-gradient centrifugation. The cells were seeded in cell culture bowls in RP10 medium.
5×10^5 dendritic cells from 1.1 were incubated with 50 μg/ml synthetic peptide from 1.2 for two hours, washed, and incubated with 2.5×10^6 autologous, i.e. coming from the same donators, mononuclear cells of periphery blood in RP10 medium. Additionally to the control peptides and the potentially HLA-A2 binding peptides the dendritic cells were partly incubated with 50 μg/ml of a PAN-HLA-DR-binding peptide which represents a T helper epitope.
After seven days of cultivation, the cells were again stimulated by adding autologous, mononuclear cells of peripheral blood pre-incubated with the synthetic peptide from 1.2. On the first, third and fifth day, respectively, 1 ng/ml human recombinant IL-2 (Genzyme) was added. The cytokine IL-2 is necessary for the cultivation and reproduction of cytotoxic T cells. Altogether, stimulation was effected up to three times in an interval of a week.

T2 cells = experiment: 51Cr release cytotoxic T cell activity on peptide-pre-incubated T2 cells; type: cell-based, human; settings: 4 h; for killing of T2 cells pre-treated with the same peptide by the cytotoxic T cells induced with the peptide: T2 cells pre-incubated with 50 μg/ml of exactly this peptide; for killing of T2 cells pre-treated with other peptides by the cytotoxic T cells induced with the peptide: T2 cells pre-incubated with other peptides
Method: T2 cells which are distinguished by the fact that they can generate HLA-A2, but cannot present peptides synthesized by themselves via this MHC class I molecules, were pre-incubated with 50 μg/ml of synthetic peptide from 1.2 for two hours and marked with [^51Cr]-sodium chromate in RP10 at 37° C. for one hour. In each case 10^4 of these cells were transferred into each of a well of a 96-well-plate. Cytotoxic T cells that were generated before according to 1.3 were added, so that, respectively, an end volume of 200 μl per well was reached. Subsequently, incubation took place for four hours at 37° C. If now the cytotoxic T cells kill the cells that were labeled with ^51Cr before, they lyse these cells, and the ^51Cr contained in the cells is released. At the end of the experiment in the cell supernatants taken off, the released radioactivity is determined by counting in a β-counter. In that way, a measure for the cytotoxic activity of T cells is obtained.

With LLLLTVLTV [SEQ ID NO: 2] as the sequence, how does the “induction of cytotoxic T cells in vitro by means of dendritic cells” value (cytotoxic T cells) read?
Its value is “able to induce cytotoxic T cells”.

And the “killing of T2 cells pre-treated with the same peptide by the cytotoxic T cells induced with the peptide” value (T2 cells)?
The value was “could kill only those cells which were pre-treated with the peptide with the sequence SEQ ID NO: 2”.

What about the “killing of T2 cells pre-treated with other peptides by the cytotoxic T cells induced with the peptide” value (T2 cells) of the same sequence?
Its value is “behave in the same way”.

Which results are given for STAPPVHNV [SEQ ID NO: 1]?
induction of cytotoxic T cells in vitro by means of dendritic cells (cytotoxic T cells): able to induce cytotoxic T cells; killing of T2 cells pre-treated with the same peptide by the cytotoxic T cells induced with the peptide (T2 cells): able to specifically kill; killing of T2 cells pre-treated with other peptides by the cytotoxic T cells induced with the peptide (T2 cells): not able to kill
